What was measured:
[1] = molecular target: BRD4-BD2 (Homo sapiens (Human), UniProt O60885); assay: BRD4 AlphaScreen assay (BRD4-BD2); assay type: binding; conditions: biotin-labeled tetra-acetylated histone H4 peptide
Protocol: (§1) BRD4-BD1 and BRD4-BD2 assays were conducted in white 384-well polystyrene plate in a final volume of 40 μL for BD1 and 60 μL for BD2. Inhibitors were first serially diluted in DMSO and added to the plate wells before the addition of other reaction components. The final concentration of DMSO in the assay was 1.25% (BD1) and 0.83% (BD2). The assays were carried out at room temperature in the assay buffer (50 mM Tris-HCl, pH 7.5, 0.01% Tween-20, 0.01% BSA, 5 mM DTT), containing 50 nM Biotin-labeled tetra-acetylated histone H4 peptide (H4Ac4) and BRD4-BD1 or BRD4-BD2 protein at concentration less than 1 nM. The incubation for 75 min. was followed by the addition of 20 μL of assay buffer supplemented with Streptavidin donor beads (PerkinElmer 6760002) and GSH Acceptor beads (PerkinElmer-AL109C) at final concentration 2-4 μg/mL under reduced light. After plate sealing, the plate was incubated in the dark at room temperature for 75 min. before reading on a PHERAstar FS plate reader (BMG Labtech). IC50 determination was performed by fitting the curve of percent control activity versus the log of the inhibitor concentration using the GraphPad Prism 5.0 software.

[2] = molecular target: BRD4-BD1 (Homo sapiens (Human), UniProt O60885); assay: BRD4 AlphaScreen assay (BRD4-BD1); assay type: binding; conditions: biotin-labeled tetra-acetylated histone H4 peptide
Protocol: as §1

Row | IC50 [1] [nM] | IC50 [2] [nM] | SMILES
1 | ≤ 100 | ≤ 100 | CNC(=O)c1cc2c(c(-c3cn(C)c(=O)c4[nH]ccc34)c1)OC(C(C)C)C(=O)N2 (stereo not drawn) [Example 20, 2-isopropyl-N-methyl-8-(6-methyl-7-oxo-6,7-dihydro-1H-pyrrolo[2,3-c]pyridin-4-yl)-3-oxo-3,4-dihydro-2H-1,4-benzoxazine-6-carboxamide]
2 | ≤ 100 | 100 to 1000 | CC(C)C1Oc2c(cc([N+](=O)[O-])cc2-c2cn(C)c(=O)c3[nH]ccc23)NC1=O (stereo not drawn) [Example 21, 2-isopropyl-8-(6-methyl-7-oxo-6,7-dihydro-1H-pyrrolo[2,3-c]pyridin-4-yl)-6-nitro-2H-1,4-benzoxazin-3(4H)-one]
3 | ≤ 100 | 100 to 1000 | COc1cc(-c2cn(C)c(=O)c3[nH]ccc23)c2c(c1)N(C)CC(C(C)C)O2 (stereo not drawn) [Example 22, 4-(2-isopropyl-6-methoxy-4-methyl-3,4-dihydro-2H-1,4-benzoxazin-8-yl)-6-methyl-1,6-dihydro-7H-pyrrolo[2,3-c]pyridin-7-one]
4 | ≤ 100 | ≤ 100 | COc1cc2c(c(-c3cn(C)c(=O)c4[nH]ccc34)c1)OC(C1CC1)C(=O)N2 (stereo not drawn) [Example 23, 2-cyclopropyl-6-methoxy-8-(6-methyl-7-oxo-6,7-dihydro-1H-pyrrolo[2,3-c]pyridin-4-yl)-2H-1,4-benzoxazin-3(4H)-one]
5 | ≤ 100 | ≤ 100 | COc1cc2c(c(-c3cn(C)c(=O)c4[nH]ccc34)c1)OC(c1ccc(F)cc1Cl)C(=O)N2 (stereo not drawn) [Example 25, 2-(2-chloro-4-fluorophenyl)-6-methoxy-8-(6-methyl-7-oxo-6,7-dihydro-1H-pyrrolo[2,3-c]pyridin-4-yl)-2H-1,4-benzoxazin-3(4H)-one]
6 | ≤ 100 | ≤ 100 | COc1cc2c(c(-c3cn(C)c(=O)c4[nH]ncc34)c1)OC(C(C)C)C(=O)N2 (stereo not drawn) [Example 26, 2-isopropyl-6-methoxy-8-(6-methyl-7-oxo-6,7-dihydro-1H-pyrazolo[3,4-c]pyridin-4-yl)-2H-1,4-benzoxazin-3(4H)-one]
7 | ≤ 100 | ≤ 100 | COc1cc2c(c(-c3cn(C)c(=O)c4[nH]ccc34)c1)OC(C)(C)C(=O)N2 [Example 27, 6-methoxy-2,2-dimethyl-8-(6-methyl-7-oxo-6,7-dihydro-1H-pyrrolo[2,3-c]pyridin-4-yl)-2H-1,4-benzoxazin-3(4H)-one]
8 | ≤ 100 | ≤ 100 | COc1cc2c(c(-c3cn(C)c(=O)c4[nH]ncc34)c1)OC(C)(C)C(=O)N2 [Example 29, 6-methoxy-2,2-dimethyl-8-(6-methyl-7-oxo-6,7-dihydro-1H-pyrazolo[3,4-c]pyridin-4-yl)-2H-1,4-benzoxazin-3(4H)-one]
9 | ≤ 100 | ≤ 100 | Cn1cc(-c2cccc3c2OC2(CC2)C(=O)N3)c2cc[nH]c2c1=O [Example 30, 8-(6-methyl-7-oxo-6,7-dihydro-1H-pyrrolo[2,3-c]pyridin-4-yl)spiro[1,4-benzoxazine-2,1′-cyclopropan]-3(4H)-one]
10 | ≤ 100 | ≤ 100 | CC(C)C1Oc2c(cc(C(=O)N3CCOCC3)cc2-c2cn(C)c(=O)c3[nH]ccc23)NC1=O (stereo not drawn) [Example 33, 2-isopropyl-8-(6-methyl-7-oxo-6,7-dihydro-1H-pyrrolo[2,3-c]pyridin-4-yl)-6-(morpholin-4-ylcarbonyl)-2H-1,4-benzoxazin-3(4H)-one]
11 | ≤ 100 | ≤ 100 | CC(C)C1Oc2c(cc(C(=O)N(C)C)cc2-c2cn(C)c(=O)c3[nH]ccc23)NC1=O (stereo not drawn) [Example 34, 2-isopropyl-N,N-dimethyl-8-(6-methyl-7-oxo-6,7-dihydro-1H-pyrrolo[2,3-c]pyridin-4-yl)-3-oxo-3,4-dihydro-2H-1,4-benzoxazine-6-carboxamide]
12 | ≤ 100 | ≤ 100 | CC(C)C1Oc2c(cc(CO)cc2-c2cn(C)c(=O)c3[nH]ccc23)NC1=O (stereo not drawn) [Example 36, 6-(hydroxymethyl)-2-isopropyl-8-(6-methyl-7-oxo-6,7-dihydro-1H-pyrrolo[2,3-c]pyridin-4-yl)-2H-1,4-benzoxazin-3(4H)-one]
13 | ≤ 100 | ≤ 100 | COCc1cc2c(c(-c3cn(C)c(=O)c4[nH]ccc34)c1)OC(C(C)C)C(=O)N2 (stereo not drawn) [Example 37, 2-isopropyl-6-(methoxymethyl)-8-(6-methyl-7-oxo-6,7-dihydro-1H-pyrrolo[2,3-c]pyridin-4-yl)-2H-1,4-benzoxazin-3(4H)-one]
14 | ≤ 100 | 100 to 1000 | CC(C)C1Oc2c(cc(CN)cc2-c2cn(C)c(=O)c3[nH]ccc23)NC1=O (stereo not drawn) [Example 38, 6-(Aminomethyl)-2-isopropyl-8-(6-methyl-7-oxo-6,7-dihydro-1H-pyrrolo[2,3-c]pyridin-4-yl)-2H-1,4-benzoxazin-3(4H)-one]
15 | ≤ 100 | ≤ 100 | CCS(=O)(=O)NCc1cc2c(c(-c3cn(C)c(=O)c4[nH]ccc34)c1)OC(C(C)C)C(=O)N2 (stereo not drawn) [Example 39, N-{[2-isopropyl-8-(6-methyl-7-oxo-6,7-dihydro-1H-pyrrolo[2,3-c]pyridin-4-yl)-3-oxo-3,4-dihydro-2H-1,4-benzoxazin-6-yl]methyl}ethanesulfonamide]
16 | ≤ 100 | ≤ 100 | CC(=O)NCc1cc2c(c(-c3cn(C)c(=O)c4[nH]ccc34)c1)OC(C(C)C)C(=O)N2 (stereo not drawn) [Example 40, N-{[2-isopropyl-8-(6-methyl-7-oxo-6,7-dihydro-1H-pyrrolo[2,3-c]pyridin-4-yl)-3-oxo-3,4-dihydro-2H-1,4-benzoxazin-6-yl]methyl}acetamide]
17 | ≤ 100 | ≤ 100 | CC(C)C1Oc2c(cc(C(N)=O)cc2-c2cn(C)c(=O)c3[nH]ccc23)NC1=O (stereo not drawn) [Example 41, 2-isopropyl-8-(6-methyl-7-oxo-6,7-dihydro-1H-pyrrolo[2,3-c]pyridin-4-yl)-3-oxo-3,4-dihydro-2H-1,4-benzoxazine-6-carboxamide]
18 | ≤ 100 | 100 to 1000 | CC(C)C1Oc2c(cc(-c3ccco3)cc2-c2cn(C)c(=O)c3[nH]ccc23)NC1=O (stereo not drawn) [Example 43, 6-(2-furyl)-2-isopropyl-8-(6-methyl-7-oxo-6,7-dihydro-1H-pyrrolo[2,3-c]pyridin-4-yl)-2H-1,4-benzoxazin-3(4H)-one]
19 | ≤ 100 | ≤ 100 | Cn1cc(-c2cc(S(C)(=O)=O)cc3c2OC(C)(C)C(=O)N3)c2cc[nH]c2c1=O [Example 45, 2,2-dimethyl-8-(6-methyl-7-oxo-6,7-dihydro-1H-pyrrolo[2,3-c]pyridin-4-yl)-6-(methylsulfonyl)-2H-1,4-benzoxazin-3(4H)-one]
20 | ≤ 100 | ≤ 100 | CC(C)C1Oc2c(-c3cn(C)c(=O)c4[nH]ccc34)cc(S(C)(=O)=O)cc2N(C)C1=O (stereo not drawn) [Example 47, 2-isopropyl-4-methyl-8-(6-methyl-7-oxo-6,7-dihydro-1H-pyrrolo[2,3-c]pyridin-4-yl)-6-(methylsulfonyl)-2H-1,4-benzoxazin-3(4H)-one]
21 | ≤ 100 | ≤ 100 | Cn1cc(-c2cc(S(C)(=O)=O)cc3c2OC(CCO)C(=O)N3)c2cc[nH]c2c1=O (stereo not drawn) [Example 48, 2-(2-hydroxyethyl)-8-(6-methyl-7-oxo-6,7-dihydro-1H-pyrrolo[2,3-c]pyridin-4-yl)-6-(methylsulfonyl)-2H-1,4-benzoxazin-3(4H)-one]

Row | SMILES | IC50 [1] [nM] | IC50 [2] [nM]
22 | COc1cc2c(c(-c3cn(C)c(=O)c4[nH]ccc34)c1)OC(c1ccccc1)C(=O)N2 (stereo not drawn) [Example 24, 6-methoxy-8-(6-methyl-7-oxo-6,7-dihydro-1H-pyrrolo[2,3-c]pyridin-4-yl)-2-phenyl-2H-1,4-benzoxazin-3(4H)-one] | ≤ 100 | ≤ 100
23 | Cn1cc(-c2cccc3c2OC(C)(C)C(=O)N3)c2cc[nH]c2c1=O [Example 31, 2,2-dimethyl-8-(6-methyl-7-oxo-6,7-dihydro-1H-pyrrolo[2,3-c]pyridin-4-yl)-2H-1,4-benzoxazin-3(4H)-one] | ≤ 100 | ≤ 100
24 | Cn1cc(-c2cccc3c2NC(C)(C)C(=O)N3)c2cc[nH]c2c1=O [Example 32, 3,3-dimethyl-5-(6-methyl-7-oxo-6,7-dihydro-1H-pyrrolo[2,3-c]pyridin-4-yl)-3,4-dihydroquinoxalin-2(1H)-one] | ≤ 100 | 100 to 1000
25 | COc1cc2c(c(-c3cn(C)c(=O)c4[nH]ncc34)c1)OC(C1CCCC1)C(=O)N2 (stereo not drawn) [Example 42, 2-Cyclopentyl-6-methoxy-8-(6-methyl-7-oxo-6,7-dihydro-1H-pyrazolo[3,4-c]pyridin-4-yl)-2H-1,4-benzoxazin-3(4H)-one] | ≤ 100 | ≤ 100
26 | CC(C)C1Oc2c(cc(S(C)(=O)=O)cc2-c2cn(C)c(=O)c3[nH]ccc23)NC1=O (stereo not drawn) [Example 44, 2-isopropyl-8-(6-methyl-7-oxo-6,7-dihydro-1H-pyrrolo[2,3-c]pyridin-4-yl)-6-(methylsulfonyl)-2H-1,4-benzoxazin-3(4H)-one] | ≤ 100 | ≤ 100
27 | Cn1cc(-c2cc(S(C)(=O)=O)cc3c2OC(c2ccccc2)C(=O)N3)c2cc[nH]c2c1=O (stereo not drawn) [Example 46, 8-(6-methyl-7-oxo-6,7-dihydro-1H-pyrrolo[2,3-c]pyridin-4-yl)-6-(methylsulfonyl)-2-phenyl-2H-1,4-benzoxazin-3(4H)-one] | ≤ 100 | ≤ 100
